Assay results as given in PMC10143423, “Endoplasmic Reticulum-Targeting Two-Photon Fluorescent Probe for CYP1A Activity and Its Imaging Application in Endoplasmic Reticulum Stress” (Molecules, 2023).

Tests used:
[1] = tested on: A549 cells; assay: CYP1A activity imaged by ERNM in DTT-induced ER stress cell model; format: cell-based; conditions: DTT 2.5 mM for 0, 1, 2, 4 h, imaged with ERNM 25 μM
Method: (§1) A549 cells were grown in RPMI-1640 culture medium (containing 10% FBS). A549 cells were seeded and incubated at 37 °C overnight. Then, A549 cells divided into different experimental groups were treated with DTT (dithiothreitol, the in-system concentration of DTT in the incubation system is 2.5 mM) for 0, 1, 2, and 4 h. The adherent cells were washed, and ERNM was added into the cell culture media (the in-system concentration of ERNM in the incubation system is 25 μM) and incubated for 60 min. Then, the cells were rinsed with PBS for at least 3 times to remove the extracellular probe. The cell images were obtained using confocal microscope (Olympus, FV1000), and the excitation wavelength was set at 800 nm and fluorescent emission windows of 520–560 nm.

[2] = target: T1, CYP1A2 (Homo sapiens, UniProt P05177); assay: ERNM O-demethylation enzyme kinetics in recombinant CYP1A2; format: biochemical
T1 construct: purchased BD Biosciences (Woburn, MA, USA)
T1 sequence (P05177 1-516): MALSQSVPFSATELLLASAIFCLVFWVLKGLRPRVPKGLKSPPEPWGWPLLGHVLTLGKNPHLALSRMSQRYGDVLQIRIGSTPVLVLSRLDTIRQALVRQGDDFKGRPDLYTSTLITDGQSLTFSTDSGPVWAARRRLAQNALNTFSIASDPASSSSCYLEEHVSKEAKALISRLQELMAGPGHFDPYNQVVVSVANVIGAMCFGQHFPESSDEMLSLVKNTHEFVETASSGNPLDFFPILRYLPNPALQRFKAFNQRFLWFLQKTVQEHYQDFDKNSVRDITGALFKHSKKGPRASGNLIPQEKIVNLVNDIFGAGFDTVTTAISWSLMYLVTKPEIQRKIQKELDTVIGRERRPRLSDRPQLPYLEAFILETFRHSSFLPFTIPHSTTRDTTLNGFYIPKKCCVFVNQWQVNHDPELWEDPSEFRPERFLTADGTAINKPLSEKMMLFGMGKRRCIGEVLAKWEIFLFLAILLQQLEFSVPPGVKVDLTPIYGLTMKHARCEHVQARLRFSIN
Method: (§2) The incubation sample consisted of NADPH-generating system (including NADP^+, magnesium chloride, glucose-6-phosphate, and glucose-6-phosphate dehydrogenase), and human liver microsomes or recombinant human CYP enzyme in potassium phosphate buffer (100 mM, pH 7.4). The total volume of the incubation mixture is 200 μL. Fluorescent substrate was dissolved in DMSO, and was pre-diluted to the working concentrations. If necessary, blank samples without NADPH or without enzymes will be set up as negative controls. The incubation reaction was initiated by adding NADP^+ after pre-incubation at 37 °C for 3 min. In addition, ice acetonitrile (100 µL) was added into the incubation samples for terminating the reaction progress. Briefly, CYP1A1 (5 nM) or CYP1A2 (5 nM) were incubated with ERNM (1, 5, 10, 15, 50, 100, 200 μM) in 200 μL of the incubation mixture in the presence of NADPH-generating systems. After incubation for 30 min, the dealkylated metabolite was measured by quantifying the intensity of fluorescence signal at 558 nm that was excited at 450 nm. Data were analyzed using GraphPad Prism 8.0 (GraphPad Software, Inc., San Diego, CA, USA).

[3] = tested on: A549 cells; assay: Colocalization of ERNM with ER-Tracker in living cells; format: cell-based; conditions: co-incubated with ER-Tracker Red, two-photon excitation
Method: The systematic evaluation of ERNM confirmed its application in complex biosystems, subsequent work is related to the investigation of the subcellular localization of ERNM in living cells. Briefly, ERNM was co-incubated with a commercial ER-Tracker (red) in A549 cells, and then imaged under two-photon (ERNM) and single-photon (ER-Tracker) excitation conditions using confocal fluorescence microscope.
as §1

[4] = target: T2, CYP1A1 (Homo sapiens, UniProt P04798); assay: ERNM O-demethylation enzyme kinetics in recombinant CYP1A1; format: biochemical
T2 construct: purchased BD Biosciences (Woburn, MA, USA)
T2 sequence (P04798 1-512): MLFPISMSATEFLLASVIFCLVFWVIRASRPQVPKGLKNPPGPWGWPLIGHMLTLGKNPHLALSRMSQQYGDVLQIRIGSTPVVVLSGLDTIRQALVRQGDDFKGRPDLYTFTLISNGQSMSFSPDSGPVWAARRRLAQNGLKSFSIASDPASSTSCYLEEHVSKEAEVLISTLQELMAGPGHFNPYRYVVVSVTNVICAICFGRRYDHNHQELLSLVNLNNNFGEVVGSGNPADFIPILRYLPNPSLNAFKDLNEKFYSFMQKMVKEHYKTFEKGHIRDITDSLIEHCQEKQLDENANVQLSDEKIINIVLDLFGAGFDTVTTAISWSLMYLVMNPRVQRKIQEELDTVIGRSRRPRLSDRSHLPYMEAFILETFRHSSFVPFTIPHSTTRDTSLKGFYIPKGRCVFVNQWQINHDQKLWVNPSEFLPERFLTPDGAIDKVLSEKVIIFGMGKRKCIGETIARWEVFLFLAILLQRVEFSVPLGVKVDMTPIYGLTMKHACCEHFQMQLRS
Method: as §2

[5] = tested on: recombinant human CYP isoenzymes; assay: Fluorescence response of ERNM toward various recombinant human CYPs; format: biochemical; conditions: CYPs 15 nM, ERNM 10 μM, 30 min, 37 °C, fluorescence 558 nm
Method: The incubation sample consisted of NADPH-generating system (including NADP^+, magnesium chloride, glucose-6-phosphate, and glucose-6-phosphate dehydrogenase), and human liver microsomes or recombinant human CYP enzyme in potassium phosphate buffer (100 mM, pH 7.4). The total volume of the incubation mixture is 200 μL. Fluorescent substrate was dissolved in DMSO, and was pre-diluted to the working concentrations. If necessary, blank samples without NADPH or without enzymes will be set up as negative controls. The incubation reaction was initiated by adding NADP^+ after pre-incubation at 37 °C for 3 min. […]
To reveal the enzyme specificity for ERNM, the human recombinant CYP enzymes including CYP1A1, CYP1A2, CYP1B1, CYP2A6, CYP2A13, CYP2B6, CYP2C8, CYP2C9, CYP2C18, CYP2C19, CYP2D6, CYP2E1, CYP2J2, CYP3A4, CYP3A5, CYP4A11, CYP4F2, CYP4F3, and CYP4F12 (15 nM) were incubated with ERNM (the in-system concentration of ERNM in the incubation system is 10 μM) in 200 μL of the incubation mixture in the presence of NADPH-generating systems. After incubation for 30 min at 37 °C, the dealkylated metabolite was measured by quantifying the intensity of fluorescence signal at 558 nm that was excited at 450 nm. Data were analyzed using GraphPad Prism 8.0 (GraphPad Software, Inc., San Diego, CA, USA).

[6] = tested on: CYP1A; assay: Inhibition of ERNM O-demethylation in human liver microsomes by selective CYP inhibitors; format: biochemical; conditions: inhibitor 2.5 μM, ERNM 10 μM, HLM, fluorescence 558 nm
Method: The incubation mixture is 200 μL. […] Inhibition by TEPA for CYP2B6 were examined by adding ERNM after pre-incubation with NADPH-generating system at 37 °C for 30 min. […] In addition, the residual activity of samples was calculated by the percentage of fluorescence signal for the chemical inhibition group to the control group, with the absence of specific inhibitors. Data were analyzed using GraphPad Prism 8.0 (GraphPad Software, Inc., San Diego, CA, USA).

[7] = substrate: COc1ccc2c3c(cccc13)C(=O)N(CCNS(=O)(=O)c1ccc(C)cc1)C2=O; assay: ERNM O-demethylation enzyme kinetics in recombinant CYP1A1; format: biochemical, human; conditions: other: CYP1A1 5 nM, ERNM 1-200 μM, 30 min, fluorescence 558 nm; pH 7.4; 37.0 °C
Method: as §2

[8] = substrate: COc1ccc2c3c(cccc13)C(=O)N(CCNS(=O)(=O)c1ccc(C)cc1)C2=O; assay: ERNM O-demethylation enzyme kinetics in recombinant CYP1A2; format: biochemical, human; conditions: other: CYP1A2 5 nM, ERNM 1-200 μM, 30 min, fluorescence 558 nm; pH 7.4; 37.0 °C
Method: as §2

[9] = substrate inhibition constant, Table S1

## O[C@@H](CS)[C@@H](O)CS (racemic) [DTT, dithiothreitol]
[1]
  Time at which CYP1A activity reached the peak: 2 h

## COc1ccc2c3c(cccc13)C(=O)N(CCNS(=O)(=O)c1ccc(C)cc1)C2=O [ERNM]
[2]; CYP1A2 5 nM, ERNM 1-200 μM, 30 min
  Vmax for demethylation catalyzed by CYP1A2: 3.32 ± 0.15 nmol/min/nmol P450
[2]; kinetic plot, Figure S5
  Kinetic behavior of CYP1A2 mediated demethylation: kinetics of substrate inhibition
[2]; [9]
  Ksi of ERNM O-demethylation in CYP1A2: 281.2 ± 50.2 µM
[3]
  Subcellular localization (overlap with ER-Tracker): exclusively target the ER
[4]; CYP1A1 5 nM, ERNM 1-200 μM, 30 min
  Vmax for demethylation catalyzed by CYP1A1: 1.92 ± 0.04 nmol/min/nmol P450
[4]; kinetic plot, Figure S5
  Kinetic behavior of CYP1A1 mediated demethylation: kinetics of substrate inhibition
[4]; [9]
  Ksi of ERNM O-demethylation in CYP1A1: 611.3 ± 93.8 µM
[5]
  Selectivity of fluorescence response among CYP isoenzymes: CYP1A1/1A2 mediated the generation of fluorescence signals at 558 nm over other CYP isoenzymes

## O=c1cc(-c2ccccc2)oc2c1ccc1ccccc12 [α-naphthoflavone]
[6]
  Effect on generation of the ERNM fluorescence signal in human liver microsomes: sufficiently suppressed

B1: CYP1A1 (Homo sapiens) (protein)
chain: T2 sequence (P04798 1-512)
notes: purchased BD Biosciences (Woburn, MA, USA)
[7]
  Km: 1.0 ± 0.1 µM
  kcat: 1.92 ± 0.04 nmol/min/nmol P450

B2: CYP1A2 (Homo sapiens) (protein)
chain: T1 sequence (P05177 1-516)
notes: as for B1
[8]
  Km: 2.9 ± 0.5 µM
  kcat: 3.32 ± 0.15 nmol/min/nmol P450
